± gives the expanded uncertainty stated by the source.
Assay: xn = mol fraction of the nth substance listed
Conditions: Liquid, Vibrating tube method

## CCCCCCCCC [nonane] + CCCO
323.15 K, 12010 kPa, x2 = 0.8941
  mass density: 768.14 ± 4.9 kg/m3
323.15 K, 12020 kPa, x2 = 0.1231
  mass density: 706.6 ± 4.5 kg/m3
323.15 K, 12020 kPa, x2 = 0.2315
  mass density: 710.98 ± 4.6 kg/m3
323.15 K, 12020 kPa, x2 = 0.4272
  mass density: 720.79 ± 4.6 kg/m3
323.15 K, 13000 kPa, x2 = 0.1231
  mass density: 707.48 ± 4.5 kg/m3
323.15 K, 13000 kPa, x2 = 0.4272
  mass density: 721.68 ± 4.6 kg/m3
323.15 K, 13000 kPa, x2 = 0.7021
  mass density: 743.81 ± 4.8 kg/m3
323.15 K, 13010 kPa, x2 = 0.2315
  mass density: 711.85 ± 4.6 kg/m3
323.15 K, 13010 kPa, x2 = 0.8941
  mass density: 768.99 ± 4.9 kg/m3
323.15 K, 13020 kPa, x2 = 0.3229
  mass density: 715.95 ± 4.6 kg/m3
323.15 K, 14000 kPa, x2 = 0.1231
  mass density: 708.35 ± 4.5 kg/m3
323.15 K, 14000 kPa, x2 = 0.2315
  mass density: 712.73 ± 4.6 kg/m3
323.15 K, 14000 kPa, x2 = 0.8941
  mass density: 769.85 ± 4.9 kg/m3
323.15 K, 14010 kPa, x2 = 0.4272
  mass density: 722.55 ± 4.6 kg/m3
323.15 K, 14020 kPa, x2 = 0.3229
  mass density: 716.82 ± 4.6 kg/m3
323.15 K, 14020 kPa, x2 = 0.7021
  mass density: 744.68 ± 4.8 kg/m3
323.15 K, 15000 kPa, x2 = 0.1231
  mass density: 709.2 ± 4.5 kg/m3
323.15 K, 15000 kPa, x2 = 0.3229
  mass density: 717.67 ± 4.6 kg/m3
323.15 K, 15010 kPa, x2 = 0.7021
  mass density: 745.54 ± 4.8 kg/m3
323.15 K, 15010 kPa, x2 = 0.8941
  mass density: 770.68 ± 4.9 kg/m3
323.15 K, 15020 kPa, x2 = 0.2315
  mass density: 713.58 ± 4.6 kg/m3
323.15 K, 15020 kPa, x2 = 0.4272
  mass density: 723.42 ± 4.6 kg/m3
323.15 K, 16010 kPa, x2 = 0.1231
  mass density: 710.02 ± 4.5 kg/m3
323.15 K, 16010 kPa, x2 = 0.8941
  mass density: 771.51 ± 4.9 kg/m3
323.15 K, 16020 kPa, x2 = 0.2315
  mass density: 714.42 ± 4.6 kg/m3
323.15 K, 16020 kPa, x2 = 0.3229
  mass density: 718.52 ± 4.6 kg/m3
323.15 K, 16020 kPa, x2 = 0.4272
  mass density: 724.26 ± 4.6 kg/m3
323.15 K, 16020 kPa, x2 = 0.7021
  mass density: 746.38 ± 4.8 kg/m3
323.15 K, 17000 kPa, x2 = 0.2315
  mass density: 715.27 ± 4.6 kg/m3
323.15 K, 17000 kPa, x2 = 0.3229
  mass density: 719.35 ± 4.6 kg/m3
323.15 K, 17000 kPa, x2 = 0.8941
  mass density: 772.34 ± 5 kg/m3
323.15 K, 17010 kPa, x2 = 0.4272
  mass density: 725.1 ± 4.7 kg/m3
323.15 K, 17020 kPa, x2 = 0.1231
  mass density: 710.86 ± 4.6 kg/m3
323.15 K, 17020 kPa, x2 = 0.7021
  mass density: 747.22 ± 4.8 kg/m3
323.15 K, 18000 kPa, x2 = 0.1231
  mass density: 711.67 ± 4.6 kg/m3
323.15 K, 18010 kPa, x2 = 0.2315
  mass density: 716.08 ± 4.6 kg/m3
323.15 K, 18010 kPa, x2 = 0.3229
  mass density: 720.19 ± 4.6 kg/m3
323.15 K, 18010 kPa, x2 = 0.4272
  mass density: 725.91 ± 4.7 kg/m3
323.15 K, 18010 kPa, x2 = 0.7021
  mass density: 748.04 ± 4.8 kg/m3
323.15 K, 18010 kPa, x2 = 0.8941
  mass density: 773.16 ± 5 kg/m3
323.15 K, 19010 kPa, x2 = 0.1231
  mass density: 712.48 ± 4.6 kg/m3
323.15 K, 19010 kPa, x2 = 0.2315
  mass density: 716.87 ± 4.6 kg/m3
323.15 K, 19010 kPa, x2 = 0.3229
  mass density: 720.99 ± 4.6 kg/m3
323.15 K, 19010 kPa, x2 = 0.4272
  mass density: 726.74 ± 4.7 kg/m3
323.15 K, 19020 kPa, x2 = 0.7021
  mass density: 748.85 ± 4.8 kg/m3
323.15 K, 19020 kPa, x2 = 0.8941
  mass density: 773.95 ± 5 kg/m3
323.15 K, 20000 kPa, x2 = 0.4272
  mass density: 727.54 ± 4.7 kg/m3
323.15 K, 20010 kPa, x2 = 0.2315
  mass density: 717.66 ± 4.6 kg/m3
323.15 K, 20010 kPa, x2 = 0.8941
  mass density: 774.74 ± 5 kg/m3
323.15 K, 20020 kPa, x2 = 0.1231
  mass density: 713.24 ± 4.6 kg/m3
323.15 K, 20020 kPa, x2 = 0.3229
  mass density: 721.77 ± 4.6 kg/m3
323.15 K, 20020 kPa, x2 = 0.7021
  mass density: 749.67 ± 4.8 kg/m3
333.15 K, 100 kPa, x2 = 0.1231
  mass density: 686.98 ± 4.4 kg/m3
333.15 K, 100 kPa, x2 = 0.2315
  mass density: 690.52 ± 4.4 kg/m3
333.15 K, 100 kPa, x2 = 0.3229
  mass density: 694.34 ± 4.5 kg/m3
333.15 K, 100 kPa, x2 = 0.4272
  mass density: 699.84 ± 4.5 kg/m3
333.15 K, 100 kPa, x2 = 0.7021
  mass density: 721.88 ± 4.6 kg/m3
333.15 K, 100 kPa, x2 = 0.8941
  mass density: 747.76 ± 4.8 kg/m3
333.15 K, 1000 kPa, x2 = 0.8941
  mass density: 748.19 ± 4.8 kg/m3
333.15 K, 1010 kPa, x2 = 0.2315
  mass density: 691.2 ± 4.4 kg/m3
333.15 K, 1010 kPa, x2 = 0.3229
  mass density: 694.86 ± 4.5 kg/m3
333.15 K, 1010 kPa, x2 = 0.4272
  mass density: 700.34 ± 4.5 kg/m3
333.15 K, 1010 kPa, x2 = 0.7021
  mass density: 722.39 ± 4.6 kg/m3
333.15 K, 1020 kPa, x2 = 0.1231
  mass density: 687.08 ± 4.4 kg/m3
333.15 K, 2000 kPa, x2 = 0.3229
  mass density: 695.92 ± 4.5 kg/m3
333.15 K, 2000 kPa, x2 = 0.4272
  mass density: 701.38 ± 4.5 kg/m3
333.15 K, 2010 kPa, x2 = 0.1231
  mass density: 688.14 ± 4.4 kg/m3
333.15 K, 2010 kPa, x2 = 0.2315
  mass density: 692.25 ± 4.4 kg/m3
333.15 K, 2010 kPa, x2 = 0.8941
  mass density: 749.18 ± 4.8 kg/m3
333.15 K, 2020 kPa, x2 = 0.7021
  mass density: 723.42 ± 4.6 kg/m3
333.15 K, 3000 kPa, x2 = 0.1231
  mass density: 689.17 ± 4.4 kg/m3
333.15 K, 3000 kPa, x2 = 0.2315
  mass density: 693.28 ± 4.4 kg/m3
333.15 K, 3010 kPa, x2 = 0.4272
  mass density: 702.44 ± 4.5 kg/m3
333.15 K, 3010 kPa, x2 = 0.8941
  mass density: 750.17 ± 4.8 kg/m3
333.15 K, 3020 kPa, x2 = 0.3229
  mass density: 696.96 ± 4.5 kg/m3
333.15 K, 3020 kPa, x2 = 0.7021
  mass density: 724.44 ± 4.6 kg/m3
333.15 K, 4000 kPa, x2 = 0.7021
  mass density: 725.48 ± 4.7 kg/m3
333.15 K, 4010 kPa, x2 = 0.1231
  mass density: 690.19 ± 4.4 kg/m3
333.15 K, 4010 kPa, x2 = 0.2315
  mass density: 694.31 ± 4.5 kg/m3
333.15 K, 4010 kPa, x2 = 0.4272
  mass density: 703.48 ± 4.5 kg/m3
333.15 K, 4020 kPa, x2 = 0.3229
  mass density: 697.98 ± 4.5 kg/m3
333.15 K, 4020 kPa, x2 = 0.8941
  mass density: 751.17 ± 4.8 kg/m3
333.15 K, 5010 kPa, x2 = 0.2315
  mass density: 695.33 ± 4.5 kg/m3
333.15 K, 5010 kPa, x2 = 0.3229
  mass density: 699.01 ± 4.5 kg/m3
333.15 K, 5010 kPa, x2 = 0.4272
  mass density: 704.5 ± 4.5 kg/m3
333.15 K, 5010 kPa, x2 = 0.8941
  mass density: 752.16 ± 4.8 kg/m3
333.15 K, 5020 kPa, x2 = 0.1231
  mass density: 691.22 ± 4.4 kg/m3
333.15 K, 5020 kPa, x2 = 0.7021
  mass density: 726.49 ± 4.7 kg/m3
333.15 K, 6000 kPa, x2 = 0.7021
  mass density: 727.51 ± 4.7 kg/m3
333.15 K, 6000 kPa, x2 = 0.8941
  mass density: 753.15 ± 4.8 kg/m3
333.15 K, 6010 kPa, x2 = 0.2315
  mass density: 696.33 ± 4.5 kg/m3
333.15 K, 6010 kPa, x2 = 0.4272
  mass density: 705.51 ± 4.5 kg/m3

Reference: the NIST ThermoML archive (doi:10.1021/acs.jced.8b00554)
